≈ marks a conversion by molar mass, not a printed value.
What was measured:
Format in all cases: functional
Bacillus subtilis [1] = assay: Antibacterial activity against Bacillus subtilis CMCC (B) 63501 at 320 ug/ml after 24 to 36 hrs by oxford cup assay; details: read-out: DIZ
Staphylococcus aureus [2] = assay: Antibacterial activity against […] Staphylococcus aureus ATCC 29213 at 160 ug/ml after 24 to 36 hrs by oxford cup assay; details: read-out: DIZ
Escherichia coli [3] = assay: Antibacterial activity against Escherichia coli CMCC (B) 44102 at 160 ug/ml after 24 to 36 hrs by oxford cup assay; details: read-out: DIZ
Staphylococcus aureus [4] = assay: Antibacterial activity against […] Staphylococcus aureus ATCC 29213 at 320 ug/ml after 24 to 36 hrs by oxford cup assay; details: read-out: DIZ
Staphylococcus aureus [5] = assay: Antibacterial activity against […] Staphylococcus aureus ATCC 33591 at 160 ug/ml after 24 to 36 hrs by oxford cup assay; details: read-out: DIZ
Staphylococcus aureus [6] = assay: Antibacterial activity against […] Staphylococcus aureus ATCC 29213 after 24 to 48 hrs by agar dilution method
Staphylococcus aureus [7] = assay: Antibacterial activity against Staphylococcus aureus CMCC (B) 26003 after 24 to 48 hrs by agar dilution method
Escherichia coli [8] = assay: Antibacterial activity against Escherichia coli CMCC (B) 44102 after 24 to 48 hrs by agar dilution method
Staphylococcus aureus [9] = assay: Antibacterial activity against Staphylococcus aureus CMCC (B) 26003 at 320 ug/ml after 24 to 36 hrs by oxford cup assay; details: read-out: DIZ
Bacillus subtilis [10] = assay: Antibacterial activity against Bacillus subtilis CMCC (B) 63501 after 24 to 48 hrs by agar dilution method
Staphylococcus aureus [11] = assay: Antibacterial activity against […] Staphylococcus aureus ATCC 33591 after 24 to 48 hrs by agar dilution method
Staphylococcus aureus [12] = assay: Antibacterial activity against Staphylococcus aureus CMCC (B) 26003 at 160 ug/ml after 24 to 36 hrs by oxford cup assay; details: read-out: DIZ
Bacillus subtilis [13] = assay: Antibacterial activity against Bacillus subtilis CMCC (B) 63501 at 160 ug/ml after 24 to 36 hrs by oxford cup assay; details: read-out: DIZ
Staphylococcus aureus [14] = assay: Antibacterial activity against […] Staphylococcus aureus ATCC 33591 at 320 ug/ml after 24 to 36 hrs by oxford cup assay; details: read-out: DIZ
Escherichia coli [15] = assay: Antibacterial activity against Escherichia coli CMCC (B) 44102 at 320 ug/ml after 24 to 36 hrs by oxford cup assay; details: read-out: DIZ
Staphylococcus aureus [16] = assay: Bactericidal activity against […] Staphylococcus aureus ATCC 29213 after 1 to 24 hrs by time-kill assay
Staphylococcus aureus [17] = assay: Bactericidal activity against Staphylococcus aureus CMCC (B) 26003 assessed as bacterial level at MIC after 1 to 24 hrs by time-kill assay
Staphylococcus aureus [18] = assay: Bactericidal activity against Staphylococcus aureus CMCC (B) 26003 after 1 to 24 hrs by time-kill assay
Staphylococcus aureus [19] = assay: Bactericidal activity against Staphylococcus aureus CMCC (B) 26003 at 6 times MIC after 4 hrs by time-kill assay relative to control
Staphylococcus aureus [20] = assay: Antibacterial activity against […] Staphylococcus aureus ATCC 29213 in iv dosed Balb/c mouse systemic infection model assessed as increase in mouse survival after 7 days
Staphylococcus aureus [21] = assay: Ratio of MIC for […] Staphylococcus aureus ATCC 29213 to MIC for Staphylococcus aureus CMCC (B) 26003

Compound	zone of inhibition at 320 µg/mL (Bacillus subtilis [1])	zone of inhibition at 160 µg/mL (Staphylococcus aureus [2])	zone of inhibition at 160 µg/mL (Escherichia coli [3])	zone of inhibition at 320 µg/mL (Staphylococcus aureus [4])	zone of inhibition at 160 µg/mL (Staphylococcus aureus [5])	MIC (Staphylococcus aureus [6])	MIC (Staphylococcus aureus [7])	MIC (Escherichia coli [8])	zone of inhibition at 320 µg/mL (Staphylococcus aureus [9])	MIC (Bacillus subtilis [10])	MIC (Staphylococcus aureus [11])	zone of inhibition at 160 µg/mL (Staphylococcus aureus [12])	zone of inhibition at 160 µg/mL (Bacillus subtilis [13])	zone of inhibition at 320 µg/mL (Staphylococcus aureus [14])	zone of inhibition at 320 µg/mL (Escherichia coli [15])	other results
C=C[C@]1(C)C[C@@H](OC(=O)CSc2nc(N)cc(NC(=O)CN(C)C)n2)[C@]2(C)[C@H](C)CC[C@]3(CCC(=O)[C@H]32)[C@@H](C)[C@@H]1O	17.5 mm	18.9 mm	9.55 mm	25.4 mm	18 mm	1 µg/mL (≈ 1.7 µM)	0.25 µg/mL (≈ 0.425 µM)	8 µg/mL (≈ 13.6 µM)	34.2 mm	4 µg/mL (≈ 6.81 µM)	0.5 µg/mL (≈ 0.851 µM)	21.8 mm	13.9 mm	22.4 mm	12.1 mm	
C=C[C@]1(C)C[C@@H](OC(=O)CSc2nc(N)cc(NC(=O)CN3CCCC3)n2)[C@]2(C)[C@H](C)CC[C@]3(CCC(=O)[C@H]32)[C@@H](C)[C@@H]1O	20 mm	19.2 mm	10.2 mm	26.5 mm	18.3 mm	0.5 µg/mL (≈ 0.815 µM)	0.125 µg/mL (≈ 0.204 µM)	4 µg/mL (≈ 6.52 µM)	30.4 mm	2 µg/mL (≈ 3.26 µM)	0.5 µg/mL (≈ 0.815 µM)	22.2 mm	14.9 mm	24 mm	13.4 mm	
C=C[C@]1(C)C[C@@H](OC(=O)CSc2nc(N)cc(NC(=O)CN3CCCCC3)n2)[C@]2(C)[C@H](C)CC[C@]3(CCC(=O)[C@H]32)[C@@H](C)[C@@H]1O	19.6 mm	18.2 mm	8.89 mm	24.9 mm	17.9 mm	0.25 µg/mL (≈ 0.398 µM)	0.25 µg/mL (≈ 0.398 µM)	8 µg/mL (≈ 12.7 µM)	30.1 mm	4 µg/mL (≈ 6.37 µM)	0.5 µg/mL (≈ 0.796 µM)	23 mm	15.2 mm	22.8 mm	10.3 mm	
C=C[C@]1(C)C[C@@H](OC(=O)CSc2nc(N)cc(N)n2)[C@]2(C)[C@H](C)CC[C@]3(CCC(=O)[C@H]32)[C@@H](C)[C@@H]1O	21.9 mm	24.7 mm	11.4 mm	33.5 mm	24.2 mm	0.125 µg/mL (≈ 0.249 µM)	0.0625 µg/mL (≈ 0.124 µM)	2 µg/mL (≈ 3.98 µM)	38.3 mm	2 µg/mL (≈ 3.98 µM)	0.0625 µg/mL (≈ 0.124 µM)	25.8 mm	17.4 mm	35.8 mm	14.2 mm	Activity (Staphylococcus aureus [16]): Dose-dependent effect; Activity (Staphylococcus aureus [17]): 3 - 4 log10CFU/ml; Activity (Staphylococcus aureus [18]): Dose-dependent effect; fold change (FC) (Staphylococcus aureus [19]): >6; Activity (Staphylococcus aureus [20]): Dose-dependent effect; ED50 (Staphylococcus aureus [20]; ATCC 29213, iv, 168 h): 4.22 mg/kg; Ratio (Staphylococcus aureus [21]): 2
C=C[C@]1(C)C[C@@H](OC(=O)CSc2nc(N)cc(NC(=O)CN3CCC(CCO)CC3)n2)[C@]2(C)[C@H](C)CC[C@]3(CCC(=O)[C@H]32)[C@@H](C)[C@@H]1O	17.3 mm	18.3 mm	10.6 mm	24.9 mm	21.6 mm	1 µg/mL (≈ 1.49 µM)	0.125 µg/mL (≈ 0.186 µM)	8 µg/mL (≈ 11.9 µM)	33.6 mm	2 µg/mL (≈ 2.98 µM)	0.5 µg/mL (≈ 0.744 µM)	24 mm	15.6 mm	32.4 mm	12.7 mm	

Source: ChEMBL document CHEMBL4002584, “Synthesis and antibacterial activities of novel pleuromutilin derivatives with a substituted pyrimidine moiety” (2017)
